According to ChEMBL document CHEMBL1828546, “Aminothiophenedicarboxamides and dicyanothiopheneacetamides as effective synthetic molluscicides against Indoplanorbis exustus snail” (Eur J Med Chem, 2011):
Active and inactive are the calls of the source. The calls are words filed in the database; no cut-off is given here.

Key:
Format in all cases: functional
Indoplanorbis exustus [1] = test: Molluscicidal activity against Indoplanorbis exustus assessed as mortality at 0.02 to 40 ppm after 24 hrs
Indoplanorbis exustus [2] = test: Molluscicidal activity against Indoplanorbis exustus assessed as mortality at 0.02 ppm after 24 hrs
Indoplanorbis exustus [3] = test: Molluscicidal activity against Indoplanorbis exustus assessed as mortality at 0.04 ppm after 24 hrs
Indoplanorbis exustus [4] = test: Molluscicidal activity against Indoplanorbis exustus assessed as mortality at 0.06 ppm after 24 hrs
Indoplanorbis exustus [5] = test: Molluscicidal activity against Indoplanorbis exustus assessed as mortality at 0.08 ppm after 24 hrs
Indoplanorbis exustus [6] = test: Molluscicidal activity against Indoplanorbis exustus after 24 hrs
Indoplanorbis exustus [7] = test: Molluscicidal activity against Indoplanorbis exustus assessed as mortality at 10 ppm after 24 hrs
Indoplanorbis exustus [8] = test: Molluscicidal activity against Indoplanorbis exustus assessed as mortality at 20 ppm after 24 hrs
Indoplanorbis exustus [9] = test: Molluscicidal activity against Indoplanorbis exustus assessed as mortality at 30 ppm after 24 hrs
Indoplanorbis exustus [10] = test: Molluscicidal activity against Indoplanorbis exustus assessed as mortality at 40 ppm after 24 hrs

N#Cc1sc(N)c(C#N)c1-c1cc(C(F)(F)F)cc(C(F)(F)F)c1
Activity (Indoplanorbis exustus [1]): inactive

CC(=O)Nc1sc(C#N)c(-c2cc(C(F)(F)F)cc(C(F)(F)F)c2)c1C#N
Activity (Indoplanorbis exustus [2]): 20%
Activity (Indoplanorbis exustus [3]): 30%
Activity (Indoplanorbis exustus [4]): 50%
Activity (Indoplanorbis exustus [5]): 70%
LC50 (Indoplanorbis exustus [6]): 0.74 ppm

NC(=O)c1sc(N)c(C(N)=O)c1-c1ccc(Cl)cc1
Activity (Indoplanorbis exustus [7]): 0%
Activity (Indoplanorbis exustus [8]): 20%
Activity (Indoplanorbis exustus [9]): 30%
Activity (Indoplanorbis exustus [10]): 50%
LC50 (Indoplanorbis exustus [6]): 0.604 ppm

N#Cc1sc(N)c(C#N)c1-c1ccc(Cl)cc1
Activity (Indoplanorbis exustus [1]): inactive

N#Cc1sc(N)c(C#N)c1-c1ccc(F)cc1F
Activity (Indoplanorbis exustus [1]): inactive

NC(=O)c1sc2nc(CCl)[nH]c(=O)c2c1-c1ccc(Cl)cc1
Activity (Indoplanorbis exustus [1]): inactive

NC(=O)c1sc(N)c(C(N)=O)c1-c1ccc(F)cc1F
Activity (Indoplanorbis exustus [7]): 20%
Activity (Indoplanorbis exustus [8]): 40%
Activity (Indoplanorbis exustus [9]): 60%
Activity (Indoplanorbis exustus [10]): 70%
LC50 (Indoplanorbis exustus [6]): 0.607 ppm

CC(=O)Nc1sc(C#N)c(-c2ccc(Cl)cc2)c1C#N
Activity (Indoplanorbis exustus [2]): 20%
Activity (Indoplanorbis exustus [3]): 40%
Activity (Indoplanorbis exustus [4]): 60%
Activity (Indoplanorbis exustus [5]): 80%
LC50 (Indoplanorbis exustus [6]): 0.651 ppm

Cc1nc2sc(C(N)=O)c(-c3ccc(Cl)cc3)c2c(=O)[nH]1
Activity (Indoplanorbis exustus [1]): inactive

CC(=O)Nc1sc(C#N)c(-c2ccc(F)cc2F)c1C#N
Activity (Indoplanorbis exustus [2]): 20%
Activity (Indoplanorbis exustus [3]): 40%
Activity (Indoplanorbis exustus [4]): 50%
Activity (Indoplanorbis exustus [5]): 60%
LC50 (Indoplanorbis exustus [6]): 0.763 ppm

NC(=O)c1sc(N)c(C(N)=O)c1-c1cc(C(F)(F)F)cc(C(F)(F)F)c1
Activity (Indoplanorbis exustus [7]): 20%
Activity (Indoplanorbis exustus [8]): 30%
Activity (Indoplanorbis exustus [9]): 60%
Activity (Indoplanorbis exustus [10]): 60%
LC50 (Indoplanorbis exustus [6]): 0.751 ppm
